Assay results as given in patent US10030027B2, “Soluble guanylate cyclase stimulators” (MERCK SHARP & DOHME CORP., priority 2015, dated 2018).

Key:
sGC α1/β1 heterodimer = sGC α1/β1 heterodimer (Homo sapiens (Human), UniProt Q02108+Q02153); experiment: Cell-based sGC functional assay (cyclic GMP assay for sGC activator: CASA assay); settings: CHO-K1/sGC cells; for Emax: CHO-K1, activity expressed as percentage of compound A (standard), read-out: % Activation; for EC50: inflection point, 4P fit, read-out: IP
Summary of the method: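 CHO-K1 cells stably expressing sGC α1/β1 were pre-incubated with or without 1 μM DETA-NO (30 min, 25 °C), then exposed to compounds for 1 hr at 37 °C with 0.5 mM IBMX. Intracellular cGMP was read by HTRF and expressed as a percentage of a reference heme-dependent activator's maximum.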

[1] = biological target: human recombinant sGC enzyme (Homo sapiens (Human), UniProt Q02108+Q02153); experiment: Size Exclusion Chromatography (SEC) competition binding assay using [3H] Ex-77B as the radioligand; settings: [3H] Ex-77B radioligand, 24 hours at 37° C.
Summary of the method: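 Recombinant human sGC binding measured by competition against tritiated Ex-77B radioligand, with non-specific binding defined by 1 μM unlabeled Ex-77B.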

[2] = system: Spontaneously hypertensive rats (SHR); experiment: Acute efficacy in spontaneously hypertensive rats (SHR); type: in vivo, rat
Summary of the method: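 Conscious male SHR with aortic telemetry implants given a single oral gavage of compound in 10% transcutol/20% Cremophor/70% water. Blood pressure sampled continuously, averaged hourly and corrected against vehicle baseline recorded the previous day; maximum peak systolic BP decrease reported at stated oral dose (mg/kg).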

[3] = system: hypoxia-induced pulmonary hypertension rat; experiment: Acute efficacy in hypoxia-induced pulmonary hypertension in rat following intratracheal administration; type: in vivo; settings: Dose IT 0.03 mpk
From the text: Acute Efficacy in Hypoxia-Induced Pulmonary Hypertension in Rat Following Intratracheal Administration Charles River Sprague-Dawley (CD) male rats weighing approximately 350 g were implanted with HD-S21 dual pressure telemetry transmitters (Data Sciences International (DSI)) into the pulmonary artery and femoral artery. This transmitter enables simultaneous measurement of both pulmonary and systemic hemodynamic parameters in the same animal. After a 7-10 day post-operative recovery period, animals were subjected to a normobaric hypoxic (10% oxygen) environment using a Higher Peak Mountain Air Generator (MAG-10) connected to a modified rodent cage via a fitted inlet port. Oxygen (at 10%), temperature, humidity, and CO2 were controlled within normal range and animals were maintained on a 12 hour light-dark cycle with ad libitum access to food and water. After two weeks exposure to 10% O2 hypoxic environment, systolic pulmonary arterial pressure readings increased from 25 mmHg to greater than 50 mmHg. Using a 48 hour baseline average, animals with readings between 50-110 mmHg (standard deviation of less than 10 mmHg) and minimal changes in systolic systemic blood pressure were enrolled for study. Animals were utilized for up to 2 studies per week for 4 weeks with a minimum of 2 days washout between doses of test agent. Compound or vehicle was administered intra-tracheally under light isoflurane anesthesia (5% in oxygen; flow rate 2.0 L/min for 3 minutes). Once anesthetized, rats were placed on an angled intubation stand in supine position and the trachea visualized using a small laryngoscope. Animals then received either 0.5 mL/kg of vehicle or 0.5 mL/kg vehicle containing compound intra-tracheally delivered via microsprayer by use of a Penn-Century Microsprayer® needle 3″ (Model IA-1B-GP) attached to a 1 mL high pressure syringe (Penn Century-Model B-SYR-PL1000) (Penn-Century, Philadelphia, Pa.). The Microsprayer® tip was inserted into the trachea up to the point at which the bend in the needle is close to the tip of the snout, which positions the tip of the Microsprayer® in front of the carina (bifurcation of trachea at the bronchi). After dose delivery the animal is placed on its back in the home cage for recovery. Hemodynamic measurements were continuously recorded and readings consolidated to hourly moving averages. Each animal received a vehicle on Day 1 followed by vehicle or test agent on Day 2. Change from vehicle baseline was calculated by subtracting the hourly Day 1 vehicle response from the hourly Day 2 response and treatment group data was expressed as mean±SEM. Decreases of systolic blood pressure (SBP) and systolic pulmonary arterial pressure (PAP) were measured at a particular IT dose (mpk milligrams per kilogram) for the following Example compounds.

| Structure (SMILES) | Emax (sGC α1/β1 heterodimer) [%] | EC50 (sGC α1/β1 heterodimer) [nM] | Ki [1] [nM] | Category: maximum peak decrease of systolic blood pressure (SBP) in SHR ([2]; Dose P.O. 3 mpk) | Category: decrease in SBP (at minimum decrease in PAP of ≥15 mmHg) [3] | Category: maximum peak decrease of systolic blood pressure (SBP) in SHR ([2]; Dose P.O. 1 mpk) | Category: maximum peak decrease of systolic blood pressure (SBP) in SHR ([2]; Dose P.O. 0.3 mpk) |
| --- | --- | --- | --- | --- | --- | --- | --- |
| C[C@@]1(c2ccc(CCC(=O)O)cc2)C(=O)Nc2nc(-c3nn(CCC(F)(F)C(F)(F)F)c4cc(F)ccc34)nc(N)c21 [Example 46B, (S)-3-(4-{4-amino-2-[6-fluoro-1-(3,3,4,4,4-pentafluorobutyl)-1H-indazol-3-yl]-5-methyl-6-oxo-6,7-dihydro-5H-pyrrolo[2,3-d]pyrimidin-5-yl}phenyl)propanoic acid] | 95 | 647 | 0.216 | A (decrease in SBP in SHRs 5-25 mmHg) | A (decrease in SBP 0-5 mmHg) | – | – |
| CC(C)(Cc1csc([C@]2(C)C(=O)Nc3nc(-c4nn(CCC(F)(F)C(F)(F)F)c5ncccc45)nc(N)c32)n1)C(=O)O (single isomer, unassigned) [Example 77B] | 105 | 489 | 0.232 | – | A (decrease in SBP 0-5 mmHg) | C (decrease in SBP in SHRs>40 mmHg) | – |
| C[C@@]1(c2ccc(CCC(=O)O)cc2)C(=O)Nc2nc(-c3nn(Cc4ccccc4F)c4ncccc34)nc(N)c21 [Example 21B, (S)-3-(4-{4-amino-2-[1-(2-fluorobenzyl)-1H-pyrazolo[3,4-b]pyridin-3-yl]-5-methyl-6-oxo-6,7-dihydro-5H-pyrrolo[2,3-d]pyrimidin-5-yl}phenyl)propanoic acid] | 93 | 362 | 0.064 | A (decrease in SBP in SHRs 5-25 mmHg) | A (decrease in SBP 0-5 mmHg) | – | – |

Second part, led by results:

| Emax (sGC α1/β1 heterodimer) [%] | EC50 (sGC α1/β1 heterodimer) [nM] | Ki [1] [nM] | Structure (SMILES) | Category: maximum peak decrease of systolic blood pressure (SBP) in SHR ([2]; Dose P.O. 3 mpk) | Category: decrease in SBP (at minimum decrease in PAP of ≥15 mmHg) [3] | Category: maximum peak decrease of systolic blood pressure (SBP) in SHR ([2]; Dose P.O. 1 mpk) | Category: maximum peak decrease of systolic blood pressure (SBP) in SHR ([2]; Dose P.O. 0.3 mpk) |
| --- | --- | --- | --- | --- | --- | --- | --- |
| 111 | 1060 | 0.322 | CC(C)(Cc1coc(C2(C)C(=O)Nc3nc(-c4nn(CCC(F)(F)C(F)(F)F)c5cc(Cl)ccc45)nc(N)c32)n1)C(=O)O (stereo not shown) [Example 2A, 3-(2-{4-amino-2-[6-chloro-1-(3,3,4,4,4-pentafluorobutyl)-1H-indazol-3-yl]-5-methyl-6-oxo-6,7-dihydro-5H-pyrrolo[2,3-d]pyrimidin-5-yl}oxazol-4-yl)-2,2-dimethyl-propanoic acid] | A (decrease in SBP in SHRs 5-25 mmHg) | A (decrease in SBP 0-5 mmHg) | – | – |
| 111 | 219 | 0.175 | CC(C)(Cc1csc([C@]2(C)C(=O)Nc3nc(-c4nn(CCC(F)(F)C(F)(F)F)c5cc(Cl)ccc45)nc(N)c32)n1)C(=O)O [Example 92B, (S)-3-(2-{4-amino-2-[6-chloro-1-(3,3,4,4,4-pentafluorobutyl)-1H-indazol-3-yl]-5-methyl-6-oxo-6,7-dihydro-5H-pyrrolo[2,3-d]pyrimidin-5-yl}-1,3-thiazol-4-yl)-2,2-dimethylpropanoic acid] | – | A (decrease in SBP 0-5 mmHg) | – | A (decrease in SBP in SHRs 5-25 mmHg) |
